Laboratory results taken from patent publication US20040071683A1, “Methods for treating pervasive development disorders” (priority 1999, published 2004).
No end group written: not given here.

Experiments:
fecal chymotrypsin = experiment: Fecal Chymotrypsin Test after secretin infusion in autistic children (Experiments 1 and 2); assay type: in vivo
Experimental: In this experiment, 16 children diagnosed as having autism were administered the following Fecal Chymotrypsin Test in accordance with an embodiment of the invention. First, approximately 2 grams of stool were collected from each child and placed in a sterile container (although it is to be understood that any quantity of stool may be collected, as 2 grams of stool is not a required amount). Each stool sample was then analyzed using, e.g., an enzymatic photospectrometry analysis as is known by those skilled in the art, to determine the level of fecal chymotrypsin in the stool. Although the enzymatic photospectrophotometry process is preferred, any suitable conventional method may be used for measuring the fecal chymotrypsin levels. The measured chymotrypsin levels of the 16 autistic children are illustrated in FIG. 13.
After determining the chymotrypsin levels of the stools, each of these levels were compared with threshold chymotrypsin levels to determine if the child was likely to benefit from secretin administration. By way of example, with the fecal chymotrypsin tests of the stool samples being performed at 30° C., normal levels of chymotrypsin are deemed to lie above 8.4 U/gram, whereas pathologically abnormal levels are deemed to lie below 4.2 U/gram. In addition, chymotrypsin levels between 8.4 U/gram and 4.2 U/gram are considered equivocal, and further testing of the individual's fecal chymotrypsin levels over a period of time should be performed.
(§1) For each of the 16 autistic children tested, a preferred secretin infusion process according to the present invention was performed involving the administering of 1 U/kg of body weight of Secretin-Ferring for a period of nine months at intervals of approximately 6 weeks. In addition, another CARS test was administered to each of the 16 autistic children 3 weeks post secretin administration to determine if their autism had changed post infusion.
A preferred secretin infusion process includes the initial step of prepping an arm of the candidate child with an IV injection of saline. A test dose of 1U of Secretin-Ferring is then administered to the child. Approximately one minute after infusion, the child is examined for signs of allergic reaction including rash, increased heart rate, and increase of blood pressure. […] Subsequently, each child receives a 1 U/kg of body weight infusion of Secretin-Ferring approximately every 6 weeks for 9 months. […]
In this experiment, 37 autistic children with abnormal fecal chymotrypsin levels were administered secretin over the course of 6 months using the secretin infusion process described above. Their fecal chymotrypsin (FC) levels were measured weekly using the fecal chymotrypsin test described above.

autistic children = experiment: CARS (Childhood Autism Rating Scale) test pre- and post-secretin administration (Experiment 1); assay type: in vivo; details: 16 autistic children
Experimental: Upon determining that a given child was likely to benefit from secretin administration based on the results of the fecal chymotrypsin test, the child was administered a CARS (Childhood Autism Rating Scale) test prior to being scheduled for secretin infusion.
as §1
A preferred secretin infusion process includes the initial step of prepping an arm of the candidate child with an IV injection of saline. A test dose of 1U of Secretin-Ferring is then administered to the child. Approximately one minute after infusion, the child is examined for signs of allergic reaction including rash, increased heart rate, and increase of blood pressure. […] Subsequently, each child receives a 1 U/kg of body weight infusion of Secretin-Ferring approximately every 6 weeks for 9 months. It is to be understood that any commercially available form of secretin may be used.

[1] = tested on: children diagnosed with Autism; details: secretin given as diagnostic procedure during upper gastrointestinal endoscopy; Horvath et al. 1998; cited from earlier work

secretin (HSDGTFTSELSRLRDSARLQRLLQGLV; ends and bridges not checked; UniProt P63298 33-59, looked up) [a gastrointestinal peptide hormone]
# Autistic Children w/ Equivocal FC levels (fecal chymotrypsin; 6 Months Post-Secretin Administration, of 37 autistic children (0 pre-secretin), equivocal between 8.4 and 4.2 U/gram): 2
# Autistic Children w/ normal FC levels (fecal chymotrypsin; 6 Months Post-Secretin Administration, of 37 autistic children (0 pre-secretin), normal above 8.4 U/gram): 34
# Autistic Children w/ Abnormal FC levels (fecal chymotrypsin; 6 Months Post-Secretin Administration, of 37 autistic children (37 abnormal pre-secretin), abnormal below 4.2 U/gram): 1
fecal chymotrypsin level post-secretin administration compared with pre-secretin (fecal chymotrypsin; each of 16 autistic children, approximately one week after first infusion of 1 U/kg Secretin-Ferring IV, FIG. 14 vs FIG. 13): increased
CARS fear component post-secretin (autistic children; 3 weeks post infusion): increased
CARS component scores post-secretin (all except fear) (autistic children; 3 weeks post infusion, FIGS. 2-12): demonstrated improvement
overall CARS scores post-secretin vs pre-secretin (autistic children; approximately 3 weeks after first secretin administration, FIG. 1): overall decrease
symptoms associated with Autism after secretin administration [1]: ameliorating the symptoms associated with Autism
